# US9181273B2, “Morpholine-spirocyclic piperidine amides as modulators of ion channels” (Vertex Pharmaceuticals Incorporated, priority 2011, dated 2015)
# Target: human NaV subtype, like NaV 1.7 (Homo sapiens, UniProt Q15858)
# Experiment: E-VIPR optical membrane potential assay with electrical stimulation
# Type: cell-based
# Details: not given
# Chain of human NaV subtype, like NaV 1.7 (Q15858 whole entry): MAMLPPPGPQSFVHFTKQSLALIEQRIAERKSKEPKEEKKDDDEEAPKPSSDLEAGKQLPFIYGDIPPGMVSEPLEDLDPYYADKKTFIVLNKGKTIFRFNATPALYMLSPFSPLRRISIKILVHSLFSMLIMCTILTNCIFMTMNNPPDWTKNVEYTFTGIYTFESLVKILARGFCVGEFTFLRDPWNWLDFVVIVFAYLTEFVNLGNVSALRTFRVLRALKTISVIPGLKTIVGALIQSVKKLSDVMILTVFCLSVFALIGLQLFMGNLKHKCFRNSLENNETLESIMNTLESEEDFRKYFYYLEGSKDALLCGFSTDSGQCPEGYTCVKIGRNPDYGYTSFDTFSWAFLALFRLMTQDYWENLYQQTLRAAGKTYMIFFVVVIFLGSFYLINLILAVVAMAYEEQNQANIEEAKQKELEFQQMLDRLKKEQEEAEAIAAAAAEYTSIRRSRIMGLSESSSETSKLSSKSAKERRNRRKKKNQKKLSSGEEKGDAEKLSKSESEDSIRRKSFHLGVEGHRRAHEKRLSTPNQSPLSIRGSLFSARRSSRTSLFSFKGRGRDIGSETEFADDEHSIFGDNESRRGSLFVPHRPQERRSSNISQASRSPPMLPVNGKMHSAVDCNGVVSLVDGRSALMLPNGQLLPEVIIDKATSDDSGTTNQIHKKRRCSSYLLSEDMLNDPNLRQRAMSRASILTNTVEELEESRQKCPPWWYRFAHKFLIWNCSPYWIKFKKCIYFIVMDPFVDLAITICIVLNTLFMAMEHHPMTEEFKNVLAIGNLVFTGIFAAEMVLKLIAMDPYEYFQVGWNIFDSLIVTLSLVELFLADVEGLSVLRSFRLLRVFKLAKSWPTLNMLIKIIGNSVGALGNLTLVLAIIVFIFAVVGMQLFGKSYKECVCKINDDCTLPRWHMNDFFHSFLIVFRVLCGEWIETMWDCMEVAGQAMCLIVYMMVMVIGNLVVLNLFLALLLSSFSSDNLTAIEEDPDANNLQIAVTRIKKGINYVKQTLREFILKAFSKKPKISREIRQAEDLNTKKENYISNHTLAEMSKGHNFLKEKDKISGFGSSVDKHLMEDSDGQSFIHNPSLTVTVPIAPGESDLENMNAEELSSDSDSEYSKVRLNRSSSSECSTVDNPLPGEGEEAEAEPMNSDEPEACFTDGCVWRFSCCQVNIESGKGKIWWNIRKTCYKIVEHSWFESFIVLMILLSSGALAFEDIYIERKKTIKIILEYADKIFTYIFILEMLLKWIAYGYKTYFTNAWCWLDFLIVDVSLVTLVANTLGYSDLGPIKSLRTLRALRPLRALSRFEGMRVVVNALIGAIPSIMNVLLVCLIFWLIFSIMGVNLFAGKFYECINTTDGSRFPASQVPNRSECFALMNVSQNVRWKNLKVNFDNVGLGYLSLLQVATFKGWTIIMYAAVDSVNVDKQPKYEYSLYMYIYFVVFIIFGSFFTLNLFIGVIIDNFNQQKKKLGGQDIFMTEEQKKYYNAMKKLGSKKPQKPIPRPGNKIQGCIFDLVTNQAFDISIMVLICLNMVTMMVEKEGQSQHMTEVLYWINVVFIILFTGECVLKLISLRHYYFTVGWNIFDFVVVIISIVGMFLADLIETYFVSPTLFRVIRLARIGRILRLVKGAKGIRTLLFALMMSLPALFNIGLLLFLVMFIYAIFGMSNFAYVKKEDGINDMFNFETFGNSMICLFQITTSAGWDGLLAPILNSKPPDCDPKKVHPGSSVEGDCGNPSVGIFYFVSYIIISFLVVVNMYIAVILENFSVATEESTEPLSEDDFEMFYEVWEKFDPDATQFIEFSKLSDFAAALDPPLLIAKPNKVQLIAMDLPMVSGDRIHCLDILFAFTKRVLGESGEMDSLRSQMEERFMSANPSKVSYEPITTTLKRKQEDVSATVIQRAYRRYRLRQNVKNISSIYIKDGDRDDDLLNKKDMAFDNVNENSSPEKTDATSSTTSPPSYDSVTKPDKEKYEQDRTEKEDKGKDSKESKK
row,IC50,Structure (SMILES)
1,< 2000 nM,Cc1cc(C(=O)N2CCC3(CC2)CN(CC(F)(F)F)CC(c2cc[nH]n2)O3)ccc1OC(C)C (stereo not drawn) [Compound 211]

# Same assay, conditions: active against one or more sodium channels; assay and NaV subtype not specified for Table 3; read-out: IC50 Binned Activity Data
row,Structure (SMILES),IC50
1,Cc1cc(C(=O)N2CCC3(CC2)CN(CC(F)F)CC(c2ncco2)O3)ccc1OC(C)C (stereo not drawn) [Compound 209],< 2000 nM
2,COc1cc(C(=O)N2CCC3(CC2)CN(CC(F)F)CC(c2cc[nH]n2)O3)ccc1OC(C)C (stereo not drawn) [Compound 210],> 5000 nM
3,Cc1nc(C(=O)N2CCC3(CC2)CN(CC#N)CC(c2ccccc2)O3)ccc1OC(C)C (stereo not drawn) [Compound 212],< 2000 nM
4,CC(C)Oc1ccc(C(=O)N2CCC3(CC2)CN(CC(F)(F)F)CC(c2ccccc2)O3)cc1Cl (stereo not drawn) [Compound 213],< 2000 nM
5,CCc1cnc(C2CN(CC(F)F)CC3(CCN(C(=O)c4ccc(OC(C)C)c(C)c4)CC3)O2)o1 (stereo not drawn) [Compound 214],2000 to 5000 nM
6,COCC1CN(CC(=O)OC)CC2(CCN(C(=O)c3ccc(OC(C)C)c(C)c3)CC2)O1 (stereo not drawn) [Compound 215],2000 to 5000 nM
7,COCC1CN(c2ncccn2)CC2(CCN(C(=O)c3ccc(OCC(C)(C)O)c(C)c3)CC2)O1 (stereo not drawn) [Compound 216],2000 to 5000 nM
8,CC#CCN1CC(CC)OC2(CCN(C(=O)c3ccc(OCCC)c(C)c3)CC2)C1 (stereo not drawn) [Compound 217],< 2000 nM
9,CC#CCN1CC(COC)OC2(CCN(C(=O)c3ccc(OC(C)C)c(C)c3)CC2)C1 (stereo not drawn) [Compound 218],< 2000 nM
10,COc1cc(C(=O)N2CCC3(CC2)CN(CC(F)F)CC(c2ccccc2)O3)ccc1OC(C)C (stereo not drawn) [Compound 219],< 2000 nM
11,COCC1CN(C2CCC(F)(F)CC2)CC2(CCN(C(=O)c3ccc(OC(C)C)c(C)c3)CC2)O1 (stereo not drawn) [Compound 220],< 2000 nM
12,CC(C)Oc1ccc(C(=O)N2CCC3(CC2)CN(CC(F)F)CC(c2ccccn2)O3)cc1F (stereo not drawn) [Compound 221],< 2000 nM
13,CC(C)Oc1ccc(C(=O)N2CCC3(CC2)CN(CC(F)F)CC(c2ccccn2)O3)cc1Cl (stereo not drawn) [Compound 222],< 2000 nM
14,COCC1CN(c2cccc(C(F)(F)F)c2)CC2(CCN(C(=O)c3ccc(C4(O)CCC4)cc3)CC2)O1 (stereo not drawn) [Compound 223],< 2000 nM
15,COc1cc(C(=O)N2CCC3(CC2)CN(CC(F)F)CC(c2ccccc2)O3)ccc1C(C)(C)O (stereo not drawn) [Compound 224],< 2000 nM
16,COCC1CN(c2cccc(C(F)(F)F)c2)CC2(CCN(C(=O)c3ccc(OCC(C)(C)O)c(C)c3)CC2)O1 (stereo not drawn) [Compound 225],< 2000 nM
17,CC(C)Oc1ccc(C(=O)N2CCC3(CC2)CN(CC(F)F)CC(c2cc[nH]n2)O3)cc1F (stereo not drawn) [Compound 226],2000 to 5000 nM
18,CCN1CC(c2ccccc2)OC2(CCN(C(=O)c3ccc(OC(C)C)c(F)c3)CC2)C1 (stereo not drawn) [Compound 227],< 2000 nM
19,COCC1CN(c2cccc(C#N)c2)CC2(CCN(C(=O)c3ccc(OC(C)C)c(C)c3)CC2)O1 (stereo not drawn) [Compound 228],< 2000 nM
20,CCn1ccc(C2CN(CC(F)F)CC3(CCN(C(=O)c4ccc(OC(C)C)c(C)c4)CC3)O2)n1 (stereo not drawn) [Compound 229],2000 to 5000 nM
21,Cc1cc(C(=O)N2CCC3(CC2)CN(CC(F)F)CC(c2ncc(C(C)(C)C)o2)O3)ccc1OC(C)C (stereo not drawn) [Compound 230],< 2000 nM
22,CC#CCN1CC(CC)OC2(CCN(C(=O)c3ccc(OC(C)C)c(C#N)c3)CC2)C1 (stereo not drawn) [Compound 231],> 5000 nM
23,COCC1CN(C2CCC[C@@H](C)C2)CC2(CCN(C(=O)c3ccc(OC(C)C)c(C)c3)CC2)O1 (stereo partly drawn) [Compound 232],< 2000 nM
24,CCC1CN(CC(F)(F)F)CC2(CCN(C(=O)c3ccc(OC(C)C)c(C)c3)CC2)O1 (stereo not drawn) [Compound 233],< 2000 nM
25,COc1cc(C(=O)N2CCC3(CC2)CN(CC(F)(F)F)CC(c2ccccc2)O3)cc(F)c1OC(C)C (stereo not drawn) [Compound 234],< 2000 nM

row,Structure (SMILES),IC50
1,CCOCC1CN(c2ncccn2)CC2(CCN(C(=O)c3ccc(OC(C)C)c(C)c3)CC2)O1 (stereo not drawn) [Compound 235],< 2000 nM
2,CCC1CN(c2ncccn2)CC2(CCN(C(=O)c3ccc(OC(C)C)c(C)c3)CC2)O1 (stereo not drawn) [Compound 236],< 2000 nM
3,COCC1CN(c2ncccn2)CC2(CCN(C(=O)c3ccc(C4(O)CCCCC4)cc3)CC2)O1 (stereo not drawn) [Compound 237],< 2000 nM
4,CCC1CN(c2ncccn2)CC2(CCN(C(=O)c3ccc(S(=O)(=O)C(C)C)c(C)c3)CC2)O1 (stereo not drawn) [Compound 238],2000 to 5000 nM
5,CC#CCN1CC(CC)OC2(CCN(C(=O)c3ccc(OC(C)C)c(F)c3)CC2)C1 (stereo not drawn) [Compound 239],> 5000 nM
6,COCC1CN(c2ncccn2)CC2(CCN(C(=O)c3ccc(CC(C)(C)O)cc3)CC2)O1 (stereo not drawn) [Compound 240],> 5000 nM
7,CC(C)(O)c1ccc(C(=O)N2CCC3(CC2)CN(CC(F)F)CC(c2ccccc2)O3)cc1 (stereo not drawn) [Compound 241],2000 to 5000 nM
8,CC#CCN1CC(CC)OC2(CCN(C(=O)c3ccc(OCC)c(C)c3)CC2)C1 (stereo not drawn) [Compound 242],2000 to 5000 nM
9,CC(C)Oc1ccc(C(=O)N2CCC3(CC2)CN(CC(F)F)CC(c2ncco2)O3)cc1F (stereo not drawn) [Compound 243],< 2000 nM
10,CC(C)Oc1ccc(C(=O)N2CCC3(CC2)CN(CC(F)F)CC(c2ccc(F)cc2)O3)cc1F (stereo not drawn) [Compound 244],< 2000 nM
11,Cc1cc(C(=O)N2CCC3(CC2)CN(CC(F)(F)F)CC(c2ccccc2)O3)ccc1OC1COC1 (stereo not drawn) [Compound 245],< 2000 nM
12,Cc1nc(C(=O)N2CCC3(CC2)CN(CC(F)F)CC(c2ccccc2)O3)ccc1OC(C)C (stereo not drawn) [Compound 246],< 2000 nM
13,COc1cc(C(=O)N2CCC3(CC2)CN(CC(F)F)CC(c2ccc(F)cc2)O3)ccc1OC(C)(C)C (stereo not drawn) [Compound 247],2000 to 5000 nM
14,CC#CCN1CC(CC)OC2(CCN(C(=O)c3ccc(OC(C)C)c(C)c3)CC2)C1 (stereo not drawn) [Compound 248],< 2000 nM
15,COCC1CN(CC(=O)C2CC2)CC2(CCN(C(=O)c3ccc(OC(C)C)c(C)c3)CC2)O1 (stereo not drawn) [Compound 249],2000 to 5000 nM
16,CCN1CC(c2ncc(C)s2)OC2(CCN(C(=O)c3ccc(OC(C)C)c(C)c3)CC2)C1 (stereo not drawn) [Compound 250],< 2000 nM
17,Cc1cc(C(=O)N2CCC3(CC2)CN(CC(F)(F)F)CC(c2ccccc2)O3)ccc1C1COC1 (stereo not drawn) [Compound 251],< 2000 nM
18,COCC1CN(Cc2nccs2)CC2(CCN(C(=O)c3ccc(OC(C)C)c(C)c3)CC2)O1 (stereo not drawn) [Compound 252],2000 to 5000 nM
19,COc1cc(C(=O)N2CCC3(CC2)CN(CC(F)F)CC(c2cccc(C)n2)O3)ccc1OC(C)C (stereo not drawn) [Compound 253],2000 to 5000 nM
20,CCN1CC(COC)OC2(CCN(C(=O)c3ccc(OC(C)C)c(C)c3)CC2)C1 (stereo not drawn) [Compound 254],2000 to 5000 nM
21,COCC1CN(C2COC2)CC2(CCN(C(=O)c3ccc(OC(C)C)c(C)c3)CC2)O1 (stereo not drawn) [Compound 255],> 5000 nM
22,COCN1CC(c2cccc(OC)n2)OC2(CCN(C(=O)c3ccc(OC(C)C)c(C)c3)CC2)C1 (stereo not drawn) [Compound 256],< 2000 nM
23,CC(C)(O)c1ccc(C(=O)N2CCC3(CC2)CN(CC(F)(F)F)CC(c2ccccc2)O3)cc1F (stereo not drawn) [Compound 257],< 2000 nM
24,COCC1CN(c2cccc(C(F)(F)F)c2)CC2(CCN(C(=O)c3ccc(OC(C)C)c(C)c3)CC2)O1 (stereo not drawn) [Compound 258],< 2000 nM
25,CCN1CC(c2ccc(F)cc2)OC2(CCN(C(=O)c3ccc(OC(C)C)c(F)c3)CC2)C1 (stereo not drawn) [Compound 259],< 2000 nM

row,Structure (SMILES),IC50
1,COCC1CN(CC(F)(F)F)CC2(CCN(C(=O)c3ccc(OC(C)C)c(C)c3)CC2)O1 (stereo not drawn) [Compound 260],< 2000 nM
2,Cc1cccnc1C1CN(CC(F)F)CC2(CCN(C(=O)c3ccc(OC(C)C)c(F)c3)CC2)O1 (stereo not drawn) [Compound 261],< 2000 nM
3,CCC1CN(CC(=O)C(C)(C)C)CC2(CCN(C(=O)c3ccc(OC(C)C)c(C)c3)CC2)O1 (stereo not drawn) [Compound 262],< 2000 nM
4,CC(C)Oc1ccc(C(=O)N2CCC3(CC2)CN(CC(F)F)CC(c2ccn(C)n2)O3)cc1F (stereo not drawn) [Compound 263],< 2000 nM
5,COCN1CC(c2ncccn2)OC2(CCN(C(=O)c3ccc(C4(O)CCC4)cc3)CC2)C1 (stereo not drawn) [Compound 264],> 5000 nM
6,Cc1cccc(C2CN(CC(F)F)CC3(CCN(C(=O)c4ccc(S(=O)(=O)C(C)C)c(C)c4)CC3)O2)n1 (stereo not drawn) [Compound 265],2000 to 5000 nM
7,CCC(=O)N1CC(c2ccccc2)OC2(CCN(C(=O)c3ccc(OC(C)C)c(C)c3)CC2)C1 (stereo not drawn) [Compound 266],2000 to 5000 nM
8,COCC1CN(c2ncccn2)CC2(CCN(C(=O)c3ccc(C(C)(C)O)c(C)c3)CC2)O1 (stereo not drawn) [Compound 267],2000 to 5000 nM
9,Cc1cnc(C2CN(C(C)(C)C)CC3(CCN(C(=O)c4ccc(OC(C)C)c(F)c4)CC3)O2)o1 (stereo not drawn) [Compound 268],2000 to 5000 nM
10,CC(C)(C)S(=O)(=O)c1ccc(C(=O)N2CCC3(CC2)CN(CC(F)F)CC(c2ccc(F)cc2)O3)cc1 (stereo not drawn) [Compound 269],2000 to 5000 nM
11,COCC1CN(C2CCOCC2)CC2(CCN(C(=O)c3ccc(OC(C)C)c(C)c3)CC2)O1 (stereo not drawn) [Compound 270],2000 to 5000 nM
12,CCC1CN(c2ncccn2)CC2(CCN(C(=O)c3ccc(C4(O)CCCC4)c(F)c3)CC2)O1 (stereo not drawn) [Compound 271],< 2000 nM
13,CCOCC1CN(CC)CC2(CCN(C(=O)c3ccc(OC(C)C)c(C)c3)CC2)O1 (stereo not drawn) [Compound 272],> 5000 nM
14,CC(C)(O)COc1ccc(C(=O)N2CCC3(CC2)CN(CC(F)(F)F)CC(c2ccccc2)O3)cc1 (stereo not drawn) [Compound 273],2000 to 5000 nM
15,COc1cc(C(=O)N2CCC3(CC2)CN(CC(F)F)CC(c2ccc(F)cc2)O3)ccc1OC(C)C (stereo not drawn) [Compound 274],< 2000 nM
16,CC(C)(O)c1ccc(C(=O)N2CCC3(CC2)CN(CC#N)CC(c2ccccc2)O3)cc1 (stereo not drawn) [Compound 275],> 5000 nM
17,COCC1CN(c2ncccn2)CC2(CCN(C(=O)c3ccc(OCCC(C)C)c(OC)c3)CC2)O1 (stereo not drawn) [Compound 276],< 2000 nM
18,CC#CCN1CC(CC)OC2(CCN(C(=O)c3ccc(OC(C)C)c(C)n3)CC2)C1 (stereo not drawn) [Compound 277],2000 to 5000 nM
19,COc1cc(C(=O)N2CCC3(CC2)CN(CC(F)(F)F)CC(c2ccccc2)O3)ccc1OC(C)C (stereo not drawn) [Compound 278],< 2000 nM
20,O=C(c1ccc(S(=O)(=O)NC2CC2)cc1)N1CCC2(CC1)CN(CC(F)F)CC(c1ccc(F)cc1)O2 (stereo not drawn) [Compound 280],2000 to 5000 nM
21,Cc1cc(C(=O)N2CCC3(CC2)CN(C(C)C)CC(c2ccccc2)O3)ccc1OC(C)C (stereo not drawn) [Compound 281],< 2000 nM
22,COCC1CN(c2ncccn2)CC2(CCN(C(=O)c3ccc(OC(C)C)c(C)n3)CC2)O1 (stereo not drawn) [Compound 282],< 2000 nM
23,Cc1cc(C(=O)N2CCC3(CC2)CN(CC#N)CC(c2ccccc2)O3)ccc1OC(C)C (stereo not drawn) [Compound 283],< 2000 nM
24,COCC1CN(c2ncccn2)CC2(CCN(C(=O)c3ccc(OC)c(C(F)(F)F)c3)CC2)O1 (stereo not drawn) [Compound 284],< 2000 nM
